Measurements as given in publication PMC11766344, “HGS Promotes Tumor Growth, Whereas the Coiled-Coil Domain and Its Oligopeptide of HGS Suppress It” (International Journal of Molecular Sciences, 2025).
“Also recorded” adds a separate entry of the source.

What was measured:
COLO 205 cells = test: In vitro anchorage-independent growth inhibition test, ULAS plate; type: cell-based, human; settings: 2 × 10^3 cells/well, ULAS 96-well plate, Opti-MEM 5% FBS, 7 days, 37 °C, Cell Counting Kit-8 A450 nm
Text: The effect of OP12-462 on anchorage-independent growth was examined; normal cells can proliferate in an anchorage-dependent manner but cannot in an anchorage-independent manner, whereas cancer cells can both proliferate in the anchorage-independent manner and form tumors. In normal (adhesion) plates, cancer cells adhere to the surface of plates and proliferate in the anchorage-dependent manner, so the anchorage-independent growth ability of the cancer cells cannot be observed. In ultra-low attachment surface (ULAS) plates, the cancer cells cannot adhere to the surface nor proliferate in the anchorage-dependent manner but can proliferate in the anchorage-independent manner. By measuring the proliferation ability of cancer cells on the ULAS plates, we can determine the anchorage-independent growth ability of the cells. […] Next, the effect of OP12-462 on tumor growth was examined. COLO 205 cells were inoculated subcutaneously into the back of BALB/cSlc-nu/nu nude mice. […]
After 7 days, 0.1 mL of Cell Counting Kit-8 solution (5-fold PBS diluted solution) was added, and the absorbance A450 nm was immediately measured and set as the T0 blank value. After incubating at 37 °C for 2 h, the absorbance A450 nm was measured again and set as T2. The absorbance difference between T2 and T0 was defined as the anchorage-independent or anchorage-dependent growth activity value.

MDCK normal cells = test: Anchorage-dependent growth in normal adhesion plates, MDCK normal cells; type: cell-based, canine
Text: (§1) The effect of OP12-462 on anchorage-independent growth was examined; normal cells can proliferate in an anchorage-dependent manner but cannot in an anchorage-independent manner, whereas cancer cells can both proliferate in the anchorage-independent manner and form tumors. In normal (adhesion) plates, cancer cells adhere to the surface of plates and proliferate in the anchorage-dependent manner, so the anchorage-independent growth ability of the cancer cells cannot be observed. In ultra-low attachment surface (ULAS) plates, the cancer cells cannot adhere to the surface nor proliferate in the anchorage-dependent manner but can proliferate in the anchorage-independent manner. By measuring the proliferation ability of cancer cells on the ULAS plates, we can determine the anchorage-independent growth ability of the cells. […] Next, the effect of OP12-462 on tumor growth was examined. COLO 205 cells were inoculated subcutaneously into the back of BALB/cSlc-nu/nu nude mice. The day when the tumor volume exceeded 250 mm^3 was set as day 0, and OP12-462 (50 mg/kg body weight) in 0.2 mL of PBS solution or vehicle (PBS) was administered once a day into the tail vein for 10 days from day 0 to day 9.

COLO205 cells = test: Oligopeptide tumor growth inhibition test, subcutaneous COLO205 tumors in nude mice; type: in vivo, nude mice (BALB/cSlc-nu/nu)
Text: The effect of OP12-462 on anchorage-independent growth was examined; normal cells can proliferate in an anchorage-dependent manner but cannot in an anchorage-independent manner, whereas cancer cells can both proliferate in the anchorage-independent manner and form tumors. In normal (adhesion) plates, cancer cells adhere to the surface of plates and proliferate in the anchorage-dependent manner, so the anchorage-independent growth ability of the cancer cells cannot be observed. In ultra-low attachment surface (ULAS) plates, the cancer cells cannot adhere to the surface nor proliferate in the anchorage-dependent manner but can proliferate in the anchorage-independent manner. By measuring the proliferation ability of cancer cells on the ULAS plates, we can determine the anchorage-independent growth ability of the cells. […]
After a 2-week acclimation period, 8-week-old female C57BL/6 or nude mice were randomly divided into groups. […] Tumor formation was monitored for 4 or 5 weeks after the inoculation by measuring the width (W) and length (L) of the tumors with W < L. The tumor volume was calculated according to the formula (W2 × L × π/6).
The cells were resuspended at a cell density of 1 × 10^6 cells in 100 µL of PBS and were inoculated subcutaneously into the flank region of 8-week-old female nude mice. […] Tumor sizes were measured daily.

[1] = Body weight and acute toxicity in tumor-bearing nude mice given OP12-462; type: in vivo, nude mice (BALB/cSlc-nu/nu)
Text: as §1
The cells were resuspended at a cell density of 1 × 10^6 cells in 100 µL of PBS and were inoculated subcutaneously into the flank region of 8-week-old female nude mice. The day when the tumor volume exceeded 250 mm^3 was set as Day 0, and oligopeptide OP12-462 (50 mg/kg body weight) was administered as a 0.2 mL PBS solution in the tail vein once daily for 10 days from Day 0 to Day 9. Tumor sizes were measured daily.

normal or cancer cells = test: Acute toxicity to cells in vitro; type: cell-based
Text: HGS/C and oligopeptides constituting HGS/C, including OP12-462, might be new tumor growth inhibitors that suppress tumor growth by inhibiting the anchorage-independent growth ability of cancer cells rather than directly destroying cancer cells. […] HGS/C and the OP12-462 are novel inhibitors of TGF-β-SMAD and Wnt-β-catenin signal transduction. They not only have a novel tumor growth suppression effect but also have the potential to become novel medicines for diseases, including various fibrosis diseases, whose symptoms worsen owing to the enhancement of these signal transduction pathways. Potential drug targets of EMT in metastasis are now in development. HGS and HGS/C are an inducer and an inhibitor of EMT and tumorigenesis. Therefore, HGS and HGS/C could be good targets of EMT-blocking drugs for clinical application.

Sequence: ERRLYYEGLQDK [OP12-462, oligopeptide of 12 amino acid residues (…) constituting the coiled-coil domain of HGS]
- Anchorage-independent growth activity (COLO 205 cells): inhibited the anchorage-independent growth activity of COLO 205 cells (Figure 5b) in a concentration-dependent manner
- Anchorage-dependent growth of MDCK normal cells (MDCK normal cells): did not inhibit
- Tumor growth (tumor volume) versus vehicle (COLO205 cells; 50 mg/kg body weight in 0.2 mL PBS, tail vein, once daily for 10 days (day 0 to day 9), day 0 = tumor volume exceeded 250 mm^3, nude mice, n = 5): statistically significant from the third day onwards; also recorded: significantly suppressed the growth of the tumor
- Duration of tumor growth suppression after end of administration (COLO205 cells; 50 mg/kg tail vein once daily day 0 to day 9, nude mice with COLO205 tumors): for more than two weeks after the administration had ended
- Average body weight / weight loss ([1]; 50 mg/kg tail vein for 10 consecutive days): no change in the average body weight; also recorded: did not result in weight loss
- Acute toxicity due to administration ([1]; 50 mg/kg tail vein once daily for 10 days): No acute toxicity
- Changes in body weight of each mouse ([1]; ten days after administration, 50 mg/kg tail vein once daily for 10 days): −0.4% to +2
- Acute toxicity to normal or cancer cells in vitro (normal or cancer cells): no acute toxicity
